According to patent publication US20260022142A1, “MACROCYCLIC IMMUNOMODULATORS” (Bristol-Myers Squibb Company, priority 2022, published 2026):
Bridge positions count the residues as written; N and C are the ends. Square brackets hold non-standard residues; d marks the D form. Peptide text beside a SMILES is read from it. * marks the point of attachment. ξ: configuration not given here. Bip = N[C@@H](Cc1ccc(-c2ccccc2)cc1)C(=O)O; Phe(3-Me) = Cc1cccc(C[C@H](N)C(=O)O)c1; Cha = N[C@@H](CC1CCCCC1)C(=O)O; Carboxymethyl = O=C(O)C*; Orn = NCCC[C@H](N)C(=O)O; Aun = NCCCCCCCCCCC(=O)O; Dab = NCC[C@H](N)C(=O)O; Dap = NC[C@H](N)C(=O)O; ξDab = NCCC(N)C(=O)O

Biological target: T1, PD-1/PD-L1 interaction (PE-labeled human PD-L1-Ig binding to Jurkat cell line over-expressing human PD-1) (Homo sapiens, UniProt Q15116)
T1 construct: expressed in transfected cells; host or cells: Jurkat
Assay: Jurkat-PD-1 Cell Binding High-Content Screening Assay (CBA)
Format: cell-based
Conditions: Jurkat cell line over-expressing human PD-1; PE-labeled PD-L1-Ig 20 nM final; read-out: Jurkat hPD1-PDL1 IC50
How it was run: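 Jurkat-hPD-1 cells, DMEM/10% FCS; cpd 2 h 37° C; PE-PD-L1-Ig 20 nM final, 1 h; 4% PFA fix + Hoechst 33342, 3× dPBS wash; high-content imaging read-out.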

T1 sequence (Q15116 25-288): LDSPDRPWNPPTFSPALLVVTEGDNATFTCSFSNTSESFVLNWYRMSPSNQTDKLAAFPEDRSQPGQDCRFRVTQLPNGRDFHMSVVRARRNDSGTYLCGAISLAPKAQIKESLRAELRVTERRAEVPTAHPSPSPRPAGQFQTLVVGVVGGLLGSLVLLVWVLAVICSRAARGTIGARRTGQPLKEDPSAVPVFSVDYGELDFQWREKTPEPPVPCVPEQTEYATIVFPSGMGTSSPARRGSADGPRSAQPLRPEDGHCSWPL

Row | SMILES | IC50 [nM]
1 | CC(C)C[C@H]1NC(=O)[C@H](CCCN)NC(=O)[C@H](Cc2ccc(O)cc2)NC(=O)[C@H](Cc2ccc(-c3ccccc3)cc2)NC(=O)[C@H](Cc2ccc(O)cc2)NC(=O)[C@H](Cc2c[nH]c3ccccc23)NC(=O)[C@H](CC(=O)O)NC(=O)[C@H](Cc2ccc(OCC(=O)O)cc2)NC(=O)[C@H](Cc2ccc(OCC(=O)O)cc2)NC(=O)CSC[C@@H](C(=O)NC(CCN)C(=O)NCCCCCCCCCCC(=O)O)NC(=O)[C@H](CCCNC(=N)N)NC(=O)[C@H](Cc2ccc(O)cc2)NC(=O)[C@H](CC2CCCCC2)NC(=O)[C@H](CCN)NC1=O (stereo partly drawn) [Compound 2508] ({CH2CO}-Y(Carboxymethyl)Y(Carboxymethyl)DWY[Bip]Y[Orn][dL][Dab][Cha]YRC[ξDab][Aun]-OH; thioether N-14) | 132
2 | CC(C)C[C@H]1NC(=O)[C@H](CCCN)NC(=O)[C@H](Cc2ccc(O)cc2)NC(=O)[C@H](Cc2ccc(-c3ccccc3)cc2)NC(=O)[C@H](Cc2ccc(O)cc2)NC(=O)[C@H](Cc2c[nH]c3ccccc23)NC(=O)[C@H](CC(=O)O)NC(=O)[C@H](Cc2ccc(OCC(=O)O)cc2)NC(=O)[C@H](CN)NC(=O)CSC[C@@H](C(=O)N[C@@H](CCN)C(=O)NCCCCCCCCCCC(=O)O)NC(=O)[C@H](CCCCN)NC(=O)[C@H](Cc2ccc(O)cc2)NC(=O)[C@H](CC2CCCCC2)NC(=O)[C@H](CCN)NC1=O [Compound 2509] ({CH2CO}-[Dap]Y(Carboxymethyl)DWY[Bip]Y[Orn][dL][Dab][Cha]YKC[Dab][Aun]-OH; thioether N-14) | 59.8
3 | Cc1cccc(C[C@@H]2NC(=O)[C@H](CC(=O)O)NC(=O)[C@H](Cc3ccc(OCC(=O)O)cc3)NC(=O)[C@H](CN)NC(=O)CSC[C@@H](C(=O)N[C@@H](CCN)C(=O)NCCCCCCCCCCC(=O)O)NC(=O)[C@H](CN)NC(=O)[C@H](Cc3ccc(O)cc3)NC(=O)[C@H](CC3CCCCC3)NC(=O)[C@H](CCN)NC(=O)[C@@H](CC(C)C)NC(=O)[C@H](CCCN)NC(=O)[C@H](Cc3ccc(O)cc3)NC(=O)[C@H](Cc3ccc(-c4ccccc4)cc3)NC(=O)[C@H](Cc3ccc(O)cc3)NC2=O)c1 [Compound 2510] ({CH2CO}-[Dap]Y(Carboxymethyl)D[Phe(3-Me)]Y[Bip]Y[Orn][dL][Dab][Cha]Y[Dap]C[Dab][Aun]-OH; thioether N-14) | 65
4 | Cc1cccc(C[C@@H]2NC(=O)[C@H](CC(=O)O)NC(=O)[C@H](Cc3ccc(OCC(=O)O)cc3)NC(=O)[C@H](CN)NC(=O)CSC[C@@H](C(=O)N[C@@H](CCN)C(=O)NCCCCCCCCCCC(=O)O)NC(=O)[C@H](CCCN)NC(=O)[C@H](Cc3ccc(O)cc3)NC(=O)[C@H](CC3CCCCC3)NC(=O)[C@H](CCN)NC(=O)[C@@H](CC(C)C)NC(=O)[C@H](CCCN)NC(=O)[C@H](Cc3ccc(O)cc3)NC(=O)[C@H](Cc3ccc(-c4ccccc4)cc3)NC(=O)[C@H](Cc3ccc(O)cc3)NC2=O)c1 [Compound 2511] ({CH2CO}-[Dap]Y(Carboxymethyl)D[Phe(3-Me)]Y[Bip]Y[Orn][dL][Dab][Cha]Y[Orn]C[Dab][Aun]-OH; thioether N-14) | 50.1
5 | Cc1cccc(C[C@@H]2NC(=O)[C@H](CC(=O)O)NC(=O)[C@H](Cc3ccc(OCC(=O)O)cc3)NC(=O)[C@H](CN)NC(=O)CSC[C@@H](C(=O)N[C@@H](CCN)C(=O)NCCCCCCCCCCC(=O)O)NC(=O)[C@H](CCCNC(=N)N)NC(=O)[C@H](Cc3ccc(O)cc3)NC(=O)[C@H](CC3CCCCC3)NC(=O)[C@H](CCN)NC(=O)[C@@H](CC(C)C)NC(=O)[C@H](CCCN)NC(=O)[C@H](Cc3ccc(O)cc3)NC(=O)[C@H](Cc3ccc(-c4ccccc4)cc3)NC(=O)[C@H](Cc3ccc(O)cc3)NC2=O)c1 [Compound 2512] ({CH2CO}-[Dap]Y(Carboxymethyl)D[Phe(3-Me)]Y[Bip]Y[Orn][dL][Dab][Cha]YRC[Dab][Aun]-OH; thioether N-14) | 33.4
